Results published in patent US6683095B2, “CDK inhibitors having 3-hydroxychromen-4-one structure” (LG Life Sciences Ltd., priority 2000, dated 2004).

Columns and labels:
CDK2/cyclin A = target: T1, CDK2/cyclin A (Homo sapiens, UniProt P24941); assay: Inhibitory activity against CDK2 (CDK2/cyclin A kinase assay, GST-Rb substrate, 32P-ATP); assay type: biochemical; conditions: 100 μM ATP, 30° C., 30 minutes
T1 construct: His; made in house; host or cells: insect cell (baculovirus co-infection)
Description: The inhibitory activity against CDK2 was measured by referring to Kitagawa, M. et al., Oncogene 9; 2549, 1994 and that against CDK4 was measured by referring to Carlson, B. A. et al., Cancer Research 56; 2473, 1996.
The part of amino acid positions 780 to 928 of C-terminus of human Rb protein was isolated, N-terminus thereof was labelled with GST protein, large amount thereof was expressed in bacteria and purified to be used as the substrate for the enzyme.
(§1) The activities of CDK2/cyclin A and CDK4/cyclin D1 were determined as follows. About 100 ng of enzyme was reacted in a total 100 μl of 20 mM Tris(pH 8.0), 100 mM NaCl, 10 mM MgCl2 buffer solution containing 20 μg of GST-Rb protein, 100 μM of ATP and 5 μCi of p^32-γ-ATP at 30° C. for 30 minutes. Then, EDTA was added to a concentration of 20 mM to stop the enzyme reaction. Subsequently, 30 μl of 50% glutathione bead (purchased from Pharmacia) was added to attach GST-Rb to the bead, which was washed three times with 20 mM Tris(pH 8.0), 100 mM NaCl, 10 mM EDTA solution, and then scintillation counting was carried out. To analyze the inhibitory activity of the compound, the inhibitor having a proper concentration was added to the enzyme reaction solution, and then the enzyme activity was measured according to the above method.
The inhibitory activity against CDK2 and CDK4 of the compound of formula (1) according to the present invention was represented as IC50 value (see the following Table 1).

CDK4/cyclin D1 = target: T2, CDK4/cyclin D1 (Homo sapiens, UniProt P11802); assay: Inhibitory activity against CDK4 (CDK4/cyclin D1 kinase assay, GST-Rb substrate, 32P-ATP); assay type: biochemical; conditions: 100 μM ATP, 30° C., 30 minutes
T2 construct: GST; made in house; host or cells: insect cell
T2 sequence (P11802 whole entry): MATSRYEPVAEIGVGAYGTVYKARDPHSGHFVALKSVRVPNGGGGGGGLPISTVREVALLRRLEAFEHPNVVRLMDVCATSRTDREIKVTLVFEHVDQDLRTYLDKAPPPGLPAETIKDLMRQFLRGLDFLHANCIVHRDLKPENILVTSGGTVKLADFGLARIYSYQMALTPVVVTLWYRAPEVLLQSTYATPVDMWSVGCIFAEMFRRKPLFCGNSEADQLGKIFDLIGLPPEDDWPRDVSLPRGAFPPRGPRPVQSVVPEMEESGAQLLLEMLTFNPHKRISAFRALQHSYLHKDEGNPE
T2 sequence (P24385 whole entry partner): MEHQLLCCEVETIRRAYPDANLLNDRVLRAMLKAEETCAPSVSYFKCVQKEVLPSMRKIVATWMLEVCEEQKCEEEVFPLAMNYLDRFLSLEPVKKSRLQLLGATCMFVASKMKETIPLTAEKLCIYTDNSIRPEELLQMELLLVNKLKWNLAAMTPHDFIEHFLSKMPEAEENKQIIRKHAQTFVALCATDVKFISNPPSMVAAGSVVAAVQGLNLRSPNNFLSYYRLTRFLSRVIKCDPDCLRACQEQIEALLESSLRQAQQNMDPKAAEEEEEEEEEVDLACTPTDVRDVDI
Description: as §1

IC50 (CDK2/cyclin A) | IC50 (CDK4/cyclin D1) | Structure (SMILES)
30 µM | 10 µM | CC(=O)Nc1cc(-c2oc3ccc(C)cc3c(=O)c2O)ccc1O [Compound 6, N-[2-hydroxy-5-(3-hydroxy-6-methyl-4-oxo-4H-chromen-2-yl)phenyl]acetamide]
18 µM | 47 µM | CC(=O)Nc1cc(C)cc2c(=O)c(O)c(-c3ccc(O)c(NC(C)C)c3)oc12 [Compound 7A, N-{2-[4-hydroxy-3-(isopropylamino)phenyl]-3-hydroxy-6-methyl-4-oxo-4H-chromen-8-yl}acetamide]
14 µM | 16 µM | Cc1cc(N)c2oc(-c3ccc(O)c(F)c3)c(O)c(=O)c2c1 [Compound 9, 8-amino-2-(3-fluoro-4-hydroxyphenyl)-3-hydroxy-6-methyl-4H-chromen-4-one]
30 µM | 100 µM | Cc1cc(NC(N)=O)c2oc(-c3ccc(O)c(NC(N)=O)c3)c(O)c(=O)c2c1 [Compound 10, N-{5-[8-(ureido)-3-hydroxy-6-methyl-4-oxo-4H-chromen-2-yl]-2-hydroxyphenyl}urea]
150 µM | 50 µM | Cc1cc(N)c2oc(-c3ccc(N)cc3)c(O)c(=O)c2c1 [Compound 11, 8-amino-2-(4-aminophenyl)-3-hydroxy-6-methyl-4H-chromen-4-one]
2 µM | 2.1 µM | Cc1cc(N)c2oc(-c3cccc(O)c3)c(O)c(=O)c2c1 [Compound 12, 8-amino-3-hydroxy-2-(3-hydroxyphenyl)-6-methyl-4H-chromen-4-one]
1000 µM | 50 µM | Cc1ccc2oc(-c3ccc(O)c(O)c3O)c(O)c(=O)c2c1 [Compound 13, 3-hydroxy-6-methyl-2-(2,3,4-trihydroxyphenyl)-4H-chromen-4-one]
0.45 µM | 1.1 µM | Cc1cc(N2CCCS2(=O)=O)c2oc(-c3ccc(O)c(F)c3)c(O)c(=O)c2c1 [Compound 16, 2-[2-(3-fluoro-4-hydroxyphenyl)-3-hydroxy-6-methyl-4-oxo-4H-chromen-8-yl]-1λ^6-isothiazolidin-1,1-dione]
0.075 µM | 0.21 µM | Cc1cc(N2CCCS2(=O)=O)c2oc(-c3ccc(O)c(Br)c3)c(O)c(=O)c2c1 [Compound 18, 2-[2-(3-bromo-4-hydroxyphenyl)-3-hydroxy-6-methyl-4-oxo-4H-chromen-8-yl]-1λ^6-isothiazolidin-1,1-dione]
1000 µM | 500 µM | Cc1cc(N2CCCS2(=O)=O)c2oc(-c3ccc(O)cc3O)c(O)c(=O)c2c1 [Compound 20, 2-[2-(2,4-dihydroxyphenyl)-3-hydroxy-6-methyl-4-oxo-4H-chromen-8-yl]-1λ^6-isothiazolidin-1,1-dione]
13 µM | 24 µM | Cc1cc(N2CCCS2(=O)=O)c2oc(-c3ccc(F)c(Cl)c3)c(O)c(=O)c2c1 [Compound 21, 2-[2-(3-chloro-4-fluorophenyl)-3-hydroxy-6-methyl-4-oxo-4H-chromen-8-yl]-1λ^6-isothiazolidin-1,1-dione]
0.7 µM | 2 µM | Cc1cc(N2CCCS2(=O)=O)c2oc(-c3ccc(O)c(C)c3)c(O)c(=O)c2c1 [Compound 22, 2-[3-hydroxy-2-(4-hydroxy-3-methylphenyl)-6-methyl-4-oxo-4H-chromen-8-yl]-1λ^6-isothiazolidin-1,1-dione]
9 µM | 7.1 µM | CCN(CC)c1cc(N2CCCS2(=O)=O)c2oc(-c3ccc(O)cc3)c(O)c(=O)c2c1 [Compound 27, 2-[6-(diethylamino)-3-hydroxy-2-(4-hydroxyphenyl)-4-oxo-4H-chromen-8-yl]-1λ^6-isothiazolidin-1,1-dione]
0.6 µM | 0.9 µM | CN(CCO)c1cc(N2CCCS2(=O)=O)c2oc(-c3ccc(O)cc3)c(O)c(=O)c2c1 [Compound 33, 2-{3-hydroxy-6-[(2-hydroxyethyl)(methyl)amino]-2-(4-hydroxyphenyl)-4-oxo-4H-chromen-8-yl}-1λ^6-isothiazolidin-1,1-dione]
1.3 µM | 1.8 µM | CC(=O)Nc1cc(N2CCCS2(=O)=O)c2oc(-c3ccc(O)c(Cl)c3)c(O)c(=O)c2c1 [Compound 34, N-[2-(3-chloro-4-hydroxyphenyl)-8-(1,1dioxo-1λ^6-isothiazolidin-2-yl)-3-hydroxy-4-oxo-4H-chromen-6-yl]acetamide]

The remaining lines, values behind:

Structure (SMILES) | IC50 (CDK2/cyclin A) | IC50 (CDK4/cyclin D1)
Cc1cc(N)c2oc(-c3ccc(O)c(N)c3)c(O)c(=O)c2c1 [Compound 1, 8-amino-2-(3-amino-4-hydroxyphenyl)-3-hydroxy-6-methyl-4H-chromen-4-one] | 1.4 µM | 20 µM
Cc1cc([N+](=O)[O-])c2oc(-c3ccc(O)c([N+](=O)[O-])c3)c(O)c(=O)c2c1 [Compound 2, 2-(4-hydroxy-3-nitrophenyl)-3-hydroxy-6-methyl-8-nitro-4H-chromen-4-one] | 4.5 µM | 7.7 µM
CC(=O)Nc1cc(C)cc2c(=O)c(O)c(-c3ccc(O)c([N+](=O)[O-])c3)oc12 [Compound 3, N-[2-(4-hydroxy-3-nitrophenyl)-3-hydroxy-6-methyl-4-oxo-4H-chromen-8-yl]acetamide] | 6 µM | 3.9 µM
Cc1cc(N)c2oc(-c3ccc(O)cc3)c(O)c(=O)c2c1 [Compound 4, 8-amino-2-(4-hydroxyphenyl)-3-hydroxy-6-methyl-4H-chromen-4-one] | 2.1 µM | 2.1 µM
CC(=O)Nc1cc(C)cc2c(=O)c(O)c(-c3ccc(O)c(N)c3)oc12 [Compound 7B, N-[2-(3-amino-4-hydroxyphenyl)-3-hydroxy-6-methyl-4-oxo-4H-chromen-8-yl]acetamide] | 3 µM | 17 µM
Cc1ccc2oc(-c3ccc(O)c(O)c3Br)c(O)c(=O)c2c1 [Compound 14, 2-(2-bromo-3,4-dihydroxyphenyl)-3-hydroxy-6-methyl-4H-chromen-4-one] | 500 µM | 11 µM
Cc1cc(N2CCCS2(=O)=O)c2oc(-c3ccc(O)c(C#N)c3)c(O)c(=O)c2c1 [Compound 19, 5-[8-(1,1-dioxo-1λ^6-isothiazolidin-2-yl)-3-hydroxy-6-methyl-4-oxo-4H-chromen-2-yl]-2-hydroxybenzonitrile] | 1.4 µM | 0.79 µM
Cc1cc(N2CCCS2(=O)=O)c2oc(-c3ccc(O)c(CO)c3)c(O)c(=O)c2c1 [Compound 23, 2-{3-hydroxy-2-[4-hydroxy-3-(hydroxymethyl)phenyl]-6-methyl-4-oxo-4H-chromen-8-yl}-1λ^6-isothiazolidin-1,1-dione] | 1.5 µM | 5 µM
Cc1cc(N2CCCS2(=O)=O)c2oc(-c3ccc(O)c(C(F)(F)F)c3)c(O)c(=O)c2c1 [Compound 24, 2-[3-hydroxy-2-(4-hydroxy-3-trifluoromethylphenyl)-6-methyl-4-oxo-4H-chromen-8-yl]-1λ^6-isothiazolidin-1,1-dione] | 0.25 µM | 2.1 µM
Nc1cc(N2CCCS2(=O)=O)c2oc(-c3ccc(O)cc3)c(O)c(=O)c2c1 [Compound 25, 2-[6-amino-3-hydroxy-2-(4-hydroxyphenyl)-4-oxo-4H-chromen-8-yl]-1λ^6-isothiazolidin-1,1-dione] | 0.088 µM | 1.2 µM
CN(C)c1cc(N2CCCS2(=O)=O)c2oc(-c3ccc(O)cc3)c(O)c(=O)c2c1 [Compound 26, 2-[6-(dimethylamino)-3-hydroxy-2-(4-hydroxyphenyl)-4-oxo-4H-chromen-8-y]-1λ^6-isothiazolidin-1,1-dione] | 0.22 µM | 0.71 µM
O=c1c(O)c(-c2ccc(O)cc2)oc2c(N3CCCS3(=O)=O)cc(NCc3ccccc3)cc12 [Compound 28, 2-[6-(benzylamino)-3-hydroxy-2-(4-hydroxyphenyl)-4-oxo-4H-chromen-8-yl]-1λ^6-isothiazolidin-1,1-dione] | 2.24 µM | 3.2 µM
O=c1c(O)c(-c2ccc(O)cc2)oc2c(N3CCCS3(=O)=O)cc(NC3CCNCC3)cc12 [Compound 29, 2-[3-hydroxy-2-(4-hydroxyphenyl)-4-oxo-6-(4-piperidinylamino)-4H-chromen-8-yl]-1λ^6-isothiazolidin-1,1-dione] | 1.8 µM | 1.7 µM
O=c1c(O)c(-c2ccc(O)cc2)oc2c(N3CCCS3(=O)=O)cc(NC3CCCCC3)cc12 [Compound 30, 2-[6-(cyclohexylamino)-3-hydroxy-2-(4-hydroxyphenyl)-4-oxo-4H-chromen-8-yl]-1λ^6-isothiazolidin-1,1-dione] | 5.6 µM | 1.6 µM
O=c1c(O)c(-c2ccc(O)cc2)oc2c(N3CCCS3(=O)=O)cc(Nc3ccccc3)cc12 [Compound 31, 2-[6-anilino-3-hydroxy-2-(4-hydroxyphenyl)-4-oxo-4H-chromen-8-yl]-1λ^6-isothiazolidin-1,1-dione] | 1.4 µM | 3 µM
CNc1cc(N2CCCS2(=O)=O)c2oc(-c3ccc(O)cc3)c(O)c(=O)c2c1 [Compound 32, 2-[3-hydroxy-2-(4-hydroxyphenyl)-6-(methylamino)-4-oxo-4H-chromen-8-yl]-1λ^6-isothiazolidin-1,1-dione] | 0.224 µM | 0.54 µM
